Reference: patent US8178553B2, “Compounds for the treatment of inflammatory disorders” (Schering Corporation, priority 2006, dated 2012)

molecular target: T1, purified catalytic domain of recombinant human TACE (rhTACEc) (Homo sapiens, UniProt P78536, N452Q/S266A); assay: TACE kinetic assay, cleavage of internally quenched fluorescent peptide substrate SPDL-3; assay type: biochemical; conditions: Specific TACE inhibitory activity of representative compounds; read-out: Ki
T1 construct: rhTACEc, Residue 215 to 477 with two mutation (S266A and N452Q) and a 6xHis tail; 6xHis (C); made in house; host or cells: baculovirus/Hi5 insect cells
Experimental: TACE activity is determined by a kinetic assay measuring the rate of increase in fluorescent intensity generated by TACE catalyzed cleavage of an internally quenched peptide substrate (SPDL-3). […] It is purified from the baculovirus/Hi5 cells expression system using affinity chromatography. […] MCA is (7-Methoxycoumarin-4-yl)acetyl. Dpa is N-3-(2,4-Dinitrophenyl)-L-2,3-diaminopropionyl.
A 50 μl assay mixture contains 20 mM HEPES, pH 7.3, 5 mM CaCl2, 100 µM ZnCl2, 2% DMSO, 0.04% Methylcellulose, 30 μM SPDL-3, 70 pM rhTACEc and a test compound. RhTACEc is pre-incubated with the testing compound for 90 min. at 25° C. Reaction is started by addition of the substrate. […] Rate of enzymatic reaction is shown as Units per second. Effect of a test compound is shown as % of TACE activity in the absence of the compound.

T1 sequence (P78536 215-477 S266A/N452Q): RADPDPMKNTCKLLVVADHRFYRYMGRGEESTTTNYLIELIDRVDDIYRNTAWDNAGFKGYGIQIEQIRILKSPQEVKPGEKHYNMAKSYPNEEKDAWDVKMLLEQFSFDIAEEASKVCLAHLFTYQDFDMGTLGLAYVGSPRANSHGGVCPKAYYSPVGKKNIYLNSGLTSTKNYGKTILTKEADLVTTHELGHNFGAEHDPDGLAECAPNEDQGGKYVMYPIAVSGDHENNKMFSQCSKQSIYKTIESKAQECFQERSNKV

Row | Ki [nM] | Compound
1 | 0.26 | COc1ccc2c(c1)C(=O)N(C[C@@]1(c3ccc(S(C)(=O)=O)cc3)NC(=O)NC1=O)C2 [Compound 43]
2 | 0.71 | COc1ccc2c(c1)C(=O)N(C[C@@]1(c3cc4cc(C(N)=O)cnc4o3)NC(=O)NC1=O)C2 [Compound 98]
3 | 0.23 | COc1ccc2c(c1)C(=O)N(C[C@@]1(c3ccc(-c4cnc(N)c(C(N)=O)c4)cc3)NC(=O)NC1=O)C2 [Compound 68]
4 | 1.04 | COc1ccc2c(c1)C(=O)N(C[C@@]1(c3cc4nc(S(C)(=O)=O)ccc4o3)NC(=O)NC1=O)C2 [Compound 50]
5 | 0.09 | COc1ccc2c(c1)C(=O)N(C[C@@]1(c3ccc(-c4ncccc4C#N)cc3)NC(=O)NC1=O)C2 [Compound 66]
6 | 0.15 | COc1ccc2c(c1)C(=O)N(C[C@@]1(c3ccc(-c4cc(C(=O)NC5CC5)cc(C)n4)cc3)NC(=O)NC1=O)C2 [Compound 64]
7 | 0.66 | COc1ccc2c(c1)C(=O)N(C[C@@]1(c3ccc(-c4cccc(C(N)=O)n4)cc3)NC(=O)NC1=O)C2 [Compound 76]

same assay, conditions: TACE inhibition, Table 1; read-out: Ki Rating

Row | Ki [nM] | Compound
8 | < 10 | COC(=O)c1ccc(C2(CN3Cc4ccc(OC)cc4C3=O)NC(=O)NC2=O)cc1 (stereo not shown) [Compound 30]
9 | < 10 | COc1ccc2c(c1)C(=O)N(C[C@@]1(c3ccc(-c4cnc(N)c(C(=O)NC5CC5)c4)cc3)NC(=O)NC1=O)C2 [Compound 65]
10 | < 10 | COC(=O)c1ccc([C@]2(CN3Cc4ccc(OC)cc4C3=O)NC(=O)NC2=O)cc1 [Compound 41]
11 | 10 to 100 | COc1ccc2c(c1)C(=O)N(C[C@]1(c3ccc(C#Cc4cccnc4)cc3)NC(=O)NC1=O)C2 [Compound 95]
12 | < 10 | COc1ccc2c(c1)C(=O)N(C[C@@]1(c3ccc(S(C)(=O)=O)cc3)NC(=O)NC1=O)C2 [Compound 43]
13 | < 10 | COC(=O)c1cccc(Oc2ccc([C@]3(CN4Cc5ccc(OC)cc5C4=O)NC(=O)NC3=O)cc2)c1 [Compound 86]
14 | < 10 | CNC(=O)c1cccnc1-c1ccc([C@]2(CN3Cc4ccc(OC)cc4C3=O)NC(=O)NC2=O)cc1 [Compound 61]
15 | < 10 | COC(=O)c1ccnc(-c2ccc(C3(CN4Cc5ccc(OC)cc5C4=O)NC(=O)NC3=O)cc2)c1 (stereo not shown) [Compound 55]
16 | < 10 | COc1ccc2c(c1)C(=O)N(C[C@@]1(c3ccc(-c4ccc(C(N)=O)nc4)cc3)NC(=O)NC1=O)C2 [Compound 75]
17 | < 10 | COc1ccc2c(c1)C(=O)N(C[C@@]1(c3ccc(C#N)cc3)NC(=O)NC1=O)C2 [Compound 101]
18 | < 10 | COC(=O)c1cc(C)nc(-c2ccc([C@]3(CN4Cc5ccc(OC)cc5C4=O)NC(=O)NC3=O)cc2)c1 [Compound 53]
19 | < 10 | COc1ccc2c(c1)C(=O)N(C[C@@]1(c3ccc(-c4cncc(C(=O)NC5CC5)c4)cc3)NC(=O)NC1=O)C2 [Compound 56]
20 | < 10 | COc1ccc2c(c1)C(=O)N(CC1(c3ccc(S(C)(=O)=O)cc3)NC(=O)NC1=O)C2 (stereo not shown) [Compound 33]
21 | < 10 | COc1ccc2c(c1)C(=O)N(C[C@@]1(c3ccc(-c4cncc(C(N)=O)c4)cc3)NC(=O)NC1=O)C2 [Compound 58]
22 | 100 to 1000 | COc1ccc2c(c1)C(=O)N(C[C@]1(c3ccc(S(C)(=O)=O)cc3)NC(=O)NC1=O)C2 [Compound 42]
23 | < 10 | CCNC(=O)c1cnc(-c2ccc([C@]3(CN4Cc5ccc(OC)cc5C4=O)NC(=O)NC3=O)cc2)cn1 [Compound 70]
24 | < 10 | COc1ccc2c(c1)C(=O)N(C[C@@]1(c3ccc(C(N)=O)cc3)NC(=O)NC1=O)C2 [Compound 103]

Row | Ki [nM] | Compound
25 | < 10 | COc1ccc2c(c1)C(=O)N(CC1(c3ccc(C(=O)O)cc3)NC(=O)NC1=O)C2 (stereo not shown) [Compound 32]
26 | < 10 | COC(=O)c1cnc(-c2ccc([C@]3(CN4Cc5ccc(OC)cc5C4=O)NC(=O)NC3=O)cc2)cn1 [Compound 54]
27 | < 10 | COc1ccc2c(c1)C(=O)N(C[C@@]1(c3ccc(-c4ncccc4C(=O)N(C)C)cc3)NC(=O)NC1=O)C2 [Compound 63]
28 | < 10 | COc1ccc2c(c1)C(=O)N(C[C@@]1(c3ccc(C#Cc4ccccn4)cc3)NC(=O)NC1=O)C2 [Compound 22]
29 | < 10 | COc1ccc2c(c1)C(=O)N(C[C@@]1(c3cc4cc(C(N)=O)cnc4o3)NC(=O)NC1=O)C2 [Compound 98]
30 | < 10 | COc1ccc2c(c1)C(=O)N(C[C@@]1(c3ccc(-c4cnc(N)c(C(N)=O)c4)cc3)NC(=O)NC1=O)C2 [Compound 68]
31 | < 10 | COc1ccc2c(c1)C(=O)N(C[C@@]1(c3ccc(-c4cccnc4C#N)cc3)NC(=O)NC1=O)C2 [Compound 104]
32 | < 10 | COc1ccc2c(c1)C(=O)N(C[C@@]1(c3ccc(-c4ncccc4C#N)cc3)NC(=O)NC1=O)C2 [Compound 66]
33 | < 10 | COc1ccc2c(c1)C(=O)N(C[C@@]1(c3ccc(-c4cc(C(=O)NC5CC5)cc(C)n4)cc3)NC(=O)NC1=O)C2 [Compound 64]
34 | < 10 | COC(=O)c1cccnc1-c1ccc([C@]2(CN3Cc4ccc(OC)cc4C3=O)NC(=O)NC2=O)cc1 [Compound 57]
35 | < 10 | COc1ccc2c(c1)C(=O)N(C[C@@]1(c3ccc(-c4cccc(C(N)=O)n4)cc3)NC(=O)NC1=O)C2 [Compound 76]
36 | < 10 | COC(=O)c1ccnc(-c2ccc([C@]3(CN4Cc5ccc(OC)cc5C4=O)NC(=O)NC3=O)cc2)c1 [Compound 74]
37 | < 10 | COc1ccc2c(c1)C(=O)N(C[C@@]1(c3ccc(Oc4cccc(C(=O)NCCN(C)C)c4)cc3)NC(=O)NC1=O)C2 [Compound 90]
38 | < 10 | COc1ccc2c(c1)C(=O)N(C[C@@]1(c3ccc(-c4cnc(C(=O)NCC(F)(F)F)cn4)cc3)NC(=O)NC1=O)C2 [Compound 72]
39 | 10 to 100 | COc1ccc2c(c1)C(=O)N(CC1(c3ccc(-c4ccccc4CCN)cc3)NC(=O)NC1=O)C2 (stereo not shown) [Compound 96]
40 | < 10 | COc1ccc2c(c1)C(=O)N(C[C@@]1(c3ccc(-c4cc(C(N)=O)cc(C)n4)cc3)NC(=O)NC1=O)C2 [Compound 67]
41 | < 10 | COc1ccc2c(c1)C(=O)N(C[C@@]1(c3ccc(-c4ccc5[nH]nc(C(N)=O)c5c4)cc3)NC(=O)NC1=O)C2 [Compound 78]

Continued, compound first:

Row | Compound | Ki [nM]
42 | COc1ccc2c(c1)C(=O)N(C[C@@]1(c3cc4cc(C#N)cnc4o3)NC(=O)NC1=O)C2 [Compound 38] | < 10
43 | COc1ccc2c(c1)C(=O)N(CC1(CC(=O)NCC(C)C)NC(=O)NC1=O)C2 (stereo not shown) [Compound 11] | 10 to 100
44 | COc1ccc2c(c1)CN(CC1(c3ccc(C#CCO)cc3)NC(=O)NC1=O)C2=O (stereo not shown) [Compound 20] | < 10
45 | COc1ccc2c(c1)C(=O)N(C[C@@]1(c3cc4cc(S(C)(=O)=O)ccc4o3)NC(=O)NC1=O)C2 [Compound 44] | < 10
46 | COc1ccc2c(c1)C(=O)N(C[C@@]1(c3cc4ncccc4n3C(=O)OC(C)(C)C)NC(=O)NC1=O)C2 [Compound 46] | < 10
47 | CCN(CC)C(=O)CC1(CN2Cc3ccc(OC)cc3C2=O)NC(=O)NC1=O (stereo not shown) [Compound 8] | 10 to 100
48 | CCOC(=O)CC1(CN2Cc3ccc(OC)cc3C2=O)NC(=O)NC1=O (stereo not shown) [Compound 1] | 10 to 100
49 | COc1ccc2c(c1)C(=O)N(CC1(CC(=O)N3CCCC3)NC(=O)NC1=O)C2 (stereo not shown) [Compound 5] | < 10
50 | COc1ccc2c(c1)C(=O)N(CC1(CC(=O)NCC3CCCO3)NC(=O)NC1=O)C2 (stereo not shown) [Compound 12] | 10 to 100
51 | COc1ccc2c(c1)C(=O)N(C[C@@]1(c3ccc(Oc4ccc(C(=O)N5CCOCC5)cc4)cc3)NC(=O)NC1=O)C2 [Compound 82] | < 10
52 | COc1ccc2c(c1)C(=O)N(CC1(CC(=O)N[C@@H](C)c3ccccc3)NC(=O)NC1=O)C2 (stereo partly shown) [Compound 4] | 10 to 100
53 | O=C1NC(=O)C(CN2Cc3ccsc3C2=O)(c2ccc(F)cc2)N1 (stereo not shown) [Compound 26] | 10 to 100
54 | O=C1NC(=O)C(CN2Cc3ncccc3C2=O)(c2ccc(F)cc2)N1 (stereo not shown) [Compound 27] | > 1000
55 | COc1ccc2c(c1)C(=O)N(CC1(CC(=O)N3CCC(Cc4ccccc4)CC3)NC(=O)NC1=O)C2 (stereo not shown) [Compound 14] | < 10
56 | COc1ccc2c(c1)C(=O)N(CC1(CC(=O)N3CCOCC3)NC(=O)NC1=O)C2 (stereo not shown) [Compound 3] | 10 to 100
57 | COc1ccc2c(c1)C(=O)N(CC1(CC(=O)N3CCN(C)CC3)NC(=O)NC1=O)C2 (stereo not shown) [Compound 13] | 10 to 100

Row | Compound | Ki [nM]
58 | COc1ccc2c(c1)C(=O)N(C[C@@]1(c3cc4nc(SC)ccc4o3)NC(=O)NC1=O)C2 [Compound 49] | < 10
59 | CC#CCOc1ccc([C@]2(CN3Cc4ccc(OC)cc4C3=O)NC(=O)NC2=O)cc1 [Compound 91] | < 10
60 | COc1ccc2c(c1)C(=O)N(CC1(CC(=O)N3CCC(C#N)(c4ccccc4)CC3)NC(=O)NC1=O)C2 (stereo not shown) [Compound 16] | 10 to 100
61 | COc1ccc2c(c1)C(=O)N(C[C@@]1(c3cc4nc(S(C)(=O)=O)ccc4o3)NC(=O)NC1=O)C2 [Compound 50] | < 10
62 | COc1ccc2c(c1)C(=O)N(CC1(CC(=O)O)NC(=O)NC1=O)C2 (stereo not shown) [Compound 2] | 100 to 1000
63 | NC(=O)Cc1ccc2c(c1)CN(CC1(c3ccc(F)cc3)NC(=O)NC1=O)C2=O (stereo not shown) [Compound 37] | 10 to 100
64 | COc1ccc2c(c1)C(=O)N(C[C@@]1(c3ccc(OCC#CCO)cc3)NC(=O)NC1=O)C2 [Compound 92] | < 10
65 | COC(=O)c1ncccc1C(=O)C[C@]1(CN2Cc3ccc(OC)cc3C2=O)NC(=O)NC1=O [Compound 45] | 10 to 100
66 | N#Cc1ccc2c(c1)CN(CC1(c3ccc(F)cc3)NC(=O)NC1=O)C2=O (stereo not shown) [Compound 35] | 10 to 100
67 | COc1ccc2c(c1)C(=O)N(C[C@@]1(c3ccc(C(=O)N4CCOCC4)cc3)NC(=O)NC1=O)C2 [Compound 99] | < 10
68 | COc1ccc2c(c1)C(=O)N(C[C@@]1(/C(Cc3c[nH]c(=O)c(C)c3)=N/O)NC(=O)NC1=O)C2 [Compound 48] | 10 to 100
69 | COc1ccc2c(c1)C(=O)N(C[C@@]1(c3cc4cc(C(=O)O)cnc4o3)NC(=O)NC1=O)C2 [Compound 39] | < 10
70 | COc1ccc2c(c1)C(=O)N(C[C@@]1(CCc3ccc(F)c(C(N)=O)c3)NC(=O)NC1=O)C2 [Compound 47] | 10 to 100
71 | COc1ccc2c(c1)C(=O)N(CC1(CC(=O)Nc3nc4ccccc4s3)NC(=O)NC1=O)C2 (stereo not shown) [Compound 10] | < 10
72 | O=C(O)Cc1ccc2c(c1)CN(CC1(c3ccc(F)cc3)NC(=O)NC1=O)C2=O (stereo not shown) [Compound 36] | 100 to 1000
73 | COc1ccc2c(c1)C(=O)N(CC1(CC(=O)N3CCCCC3)NC(=O)NC1=O)C2 (stereo not shown) [Compound 9] | < 10
